Eight molecules from PubChem BioAssay (NCI) can be followed below.

Among the test systems are COLO 205 colon; CCRF-CEM leukemia; HT29 colon; T-47D breast; HOP-92 NSCLC; SK-MEL-2 melanoma; CAKI-1 renal; MALME-3M melanoma; MDA-MB-435; NCI-H226 lung.
Holding throughout (test): NCI-60 cell line screen, 48 h

“And” between values parts separate entries of the source, which are not always exact repeats. Equal values may be shown once.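 Five concentrations, 48 hours, 96-well plates. GI50 marks 50% less growth. TGI is the concentration that stops growth completely.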 Some results are limits rather than exact numbers.

For the molecule `O=C(c1ccncc1)N1CCN(C2=NS(=O)(=O)c3ccccc3N2c2ccccc2)CC1`, the GI50 in the assay on COLO 205 colon was 30300 nM; in the assay on CCRF-CEM leukemia it was 1950 nM; with HT29 colon it was 19000 nM; in the assay with T-47D breast, 10900 nM; with HOP-92 NSCLC it was 4070 nM; with SK-MEL-2 melanoma, 28000 nM. For the same molecule, the GI50 with CAKI-1 renal is 30300 nM; in the assay on MALME-3M melanoma, 23600 nM; in the assay on MDA-MB-435, 18900 nM; in the assay with NCI-H226 lung, 17100 nM. The TGI in the assay on COLO 205 colon is over 100000 nM; in the assay with CCRF-CEM leukemia, over 100000 nM; in the assay on HT29 colon, 57800 nM; in the assay with T-47D breast, 57500 nM; in the assay with HOP-92 NSCLC, 21400 nM; in the assay with SK-MEL-2 melanoma, 65700 nM. Also, the TGI is 88500 nM with CAKI-1 renal, 51800 nM in the assay on MALME-3M melanoma, 40000 nM in the assay on MDA-MB-435 and 42400 nM in the assay with NCI-H226 lung.

On to `CNC(=O)c1c(NC(=O)c2ccc(C(C)C)cc2)sc2c1CCC(=O)C2`, for which the GI50 is 288 nM with COLO 205 colon; 146 nM in the assay on CCRF-CEM leukemia; 338 nM with HT29 colon; 341 nM with T-47D breast; 703 nM in the assay with HOP-92 NSCLC; 1600 nM in the assay with SK-MEL-2 melanoma. In addition, the GI50 was 310 nM with CAKI-1 renal, 891 nM in the assay on MALME-3M melanoma, 1070 nM in the assay with MDA-MB-435 and 1730 nM with NCI-H226 lung. Besides, the TGI turned out to be 914 nM with COLO 205 colon; 1600 nM with HT29 colon; 2300 nM in the assay with T-47D breast; 3390 nM in the assay with HOP-92 NSCLC; 5960 nM in the assay on SK-MEL-2 melanoma; 1500 nM in the assay on CAKI-1 renal. Moreover, the values for the TGI in the assay with MALME-3M melanoma, with MDA-MB-435 and in the assay with NCI-H226 lung were 2940 nM, 3930 nM and 5290 nM, respectively.

Take `C/C=C1\C[C@@H]2C(OC)Nc3cc(O)c(OC)cc3C(=O)N2C1` (stereo not given in full): the TGI in the assay on COLO 205 colon is 21.2 nM; in the assay on CCRF-CEM leukemia it was 103 nM and 349 nM; in the assay with HT29 colon, 160 nM and < 215 nM; in the assay with T-47D breast, 78.3 nM and < 26.5 nM; in the assay with HOP-92 NSCLC it was 129 nM and < 13.7 nM; in the assay on SK-MEL-2 melanoma, 7.13 nM and < 15.9 nM. Moreover, the TGI is 14.8 nM in the assay with MALME-3M melanoma; 62.3 nM and < 10.6 nM in the assay with MDA-MB-435; 728 nM and 163 nM in the assay on NCI-H226 lung. The GI50 in the assay with CCRF-CEM leukemia was 2.29 nM; in the assay with HT29 colon, 7.5 nM; in the assay on HOP-92 NSCLC it was 7.38 nM; with SK-MEL-2 melanoma, 2.88 nM; in the assay on CAKI-1 renal it was 7.52 nM; with MALME-3M melanoma it was 5.01 nM. The GI50 with MDA-MB-435 is 8.19 nM; in the assay with NCI-H226 lung, 116 nM.

As to `COC(=O)c1cc(NC(=O)CN(CCN(CC(=O)O)CC(=O)Nc2ccc(O)c(C(=O)OC)c2)CC(=O)O)ccc1O`, the GI50 with COLO 205 colon is 72000 nM; in the assay on CCRF-CEM leukemia it was 30900 nM; with HT29 colon, over 100000 nM; in the assay on T-47D breast, 32700 nM; with HOP-92 NSCLC, over 100000 nM; with SK-MEL-2 melanoma, over 100000 nM. Besides, the GI50 with CAKI-1 renal was 32000 nM; in the assay with MALME-3M melanoma it was over 100000 nM; in the assay with MDA-MB-435, over 100000 nM; in the assay on NCI-H226 lung it was over 100000 nM. Moreover, the TGI in the assay on COLO 205 colon, in the assay with CCRF-CEM leukemia, in the assay with HT29 colon, with T-47D breast, with HOP-92 NSCLC and in the assay with SK-MEL-2 melanoma was over 100000 nM throughout. The TGI in the assay on CAKI-1 renal, in the assay on MALME-3M melanoma, in the assay with MDA-MB-435 and in the assay on NCI-H226 lung was over 100000 nM in each case.

For the molecule `CC(=O)OC1CC(C)c2c(Cl)ncnc21` (stereo not given), the GI50 in the assay on COLO 205 colon is over 100000 nM; in the assay on CCRF-CEM leukemia, 50100 nM; in the assay with HT29 colon, over 100000 nM; in the assay on T-47D breast, over 100000 nM; with HOP-92 NSCLC, over 100000 nM; with SK-MEL-2 melanoma, over 100000 nM. Further, the GI50 with CAKI-1 renal was 45700 nM; in the assay on MALME-3M melanoma it was over 100000 nM; in the assay on MDA-MB-435, over 100000 nM; with NCI-H226 lung, over 100000 nM. Moreover, the TGI in the assay on COLO 205 colon, with CCRF-CEM leukemia, in the assay on HT29 colon, with T-47D breast, with HOP-92 NSCLC and in the assay with SK-MEL-2 melanoma was over 100000 nM each time. The TGI in the assay with CAKI-1 renal, in the assay with MALME-3M melanoma, in the assay with MDA-MB-435 and with NCI-H226 lung was over 100000 nM each time.

`CNc1ccc(C(=O)CC(O)CCC(C)C2OC(=O)CC(O)CC(=O)CC(O)CC(O)CC(O)CC(O)CC3(O)CC(O)C(C(=O)NCCc4ccccn4)C(CC(OC4OC(C)C(O)C(N)C4O)/C=C/C=C/C=C/C=C\C=C/C=C/C=C/C2C)O3)cc1` (stereo not given): the GI50 in the assay on COLO 205 colon is 1630 nM; in the assay on CCRF-CEM leukemia, 1770 nM; in the assay with HT29 colon, 2650 nM; in the assay with T-47D breast, 1260 nM; in the assay with HOP-92 NSCLC, 1480 nM; in the assay on CAKI-1 renal, 165 nM. The GI50 in the assay on MALME-3M melanoma was 39.8 nM; in the assay on MDA-MB-435 it was 128 nM; in the assay on NCI-H226 lung it was 2290 nM. Further, the TGI in the assay with COLO 205 colon is over 50000 nM; in the assay on CCRF-CEM leukemia, over 50000 nM; in the assay on HT29 colon it was over 50000 nM; with T-47D breast it was over 50000 nM; with HOP-92 NSCLC it was 19200 nM; in the assay on SK-MEL-2 melanoma, over 50000 nM. Besides, the TGI came to 633 nM in the assay on CAKI-1 renal, 144 nM with MALME-3M melanoma, 406 nM with MDA-MB-435 and 9710 nM with NCI-H226 lung.

With `COc1ccc(CCN2COc3ccc4ccc(=O)oc4c3C2)cc1OC`, the TGI was over 100000 nM in the assay on COLO 205 colon; 54800 nM in the assay with CCRF-CEM leukemia; over 100000 nM in the assay on HT29 colon; over 100000 nM in the assay with T-47D breast; over 100000 nM in the assay on HOP-92 NSCLC; over 100000 nM in the assay on SK-MEL-2 melanoma. Besides, the TGI in the assay with CAKI-1 renal, in the assay with MALME-3M melanoma, in the assay with MDA-MB-435 and in the assay on NCI-H226 lung was over 100000 nM in each case.

For the molecule `Cc1nc2sc(C(=O)Nc3cccc(Cl)c3C)c(N)c2cc1C(=O)c1ccccc1`, the GI50 with COLO 205 colon is 293 nM; with CCRF-CEM leukemia it was 180 nM; in the assay with HT29 colon, 202 nM; in the assay with T-47D breast, 245 nM; with HOP-92 NSCLC it was 259 nM; in the assay on SK-MEL-2 melanoma, 329 nM. Also, the GI50 in the assay with CAKI-1 renal was 214 nM; in the assay with MALME-3M melanoma, 811 nM; with MDA-MB-435 it was 98.8 nM; with NCI-H226 lung, 1280 nM. Besides, the TGI in the assay with COLO 205 colon is 5020 nM; with CCRF-CEM leukemia, over 50000 nM; in the assay on HT29 colon, over 17900 nM; in the assay on T-47D breast, over 50000 nM; in the assay with HOP-92 NSCLC, over 23700 nM; in the assay on SK-MEL-2 melanoma it was over 50000 nM. Moreover, the TGI was over 50000 nM with CAKI-1 renal, over 50000 nM in the assay with MALME-3M melanoma, 257 nM in the assay on MDA-MB-435 and over 50000 nM with NCI-H226 lung.
